Active and inactive are the calls of the source. The calls are words filed in the database; no cut-off is given here.
Key:
RAW264.7 [1] = test: Inhibition of LPS-induced NO production in mouse RAW264.7 cells pretreated for 2 hrs followed by LPS stimulation for 24 hrs by Griess assay; assay type: functional, cell-based
Mus musculus [2] = test: Anti-septic activity in LPS-induced sepsis BALB/c mouse assessed as reduction in serum ALT level at 30 mg/kg administered via gavage for 3 days followed by LPS treatment for 6 hrs; assay type: functional, organism-based; settings: time 78.0 hrs
RAW264.7 [3] = test: Upregulation of glucocorticoid receptor mRNA expression in LPS-treated mouse RAW264.7 cells incubated for 24 hrs by qRT-PCR analysis; assay type: functional, cell-based
RAW264.7 [4] = test: Inhibition of LPS-induced NO production in mouse RAW264.7 cells at 20 uM pretreated for 2 hrs followed by LPS stimulation for 24 hrs by Griess assay relative to control; assay type: functional; settings: time 26 hrs
RAW264.7 [5] = test: Effect on KLF9 mRNA expression in mouse RAW264.7 cells by qPCR analysis; assay type: functional, cell-based
RAW264.7 [6] = test: Anti-inflammatory activity in mouse RAW264.7 cells assessed as decrease in LPS-induced p65 phosphorylation at 20 uM pretreated for 2 hrs followed by LPS stimulation for 24 hrs by Western blot analysis; assay type: functional, cell-based; settings: time 26.0 hrs
Mus musculus [7] = test: Anti-septic activity in LPS-induced sepsis BALB/c mouse assessed as reduction in hepatic hemorrhage at 7.5 to 30 mg/kg administered via gavage for 3 days followed by LPS treatment for 6 hrs by H and E staining based analysis; assay type: functional, organism-based; settings: dose 7.5-30 mg/kg, time 78.0 hrs
[8] = biological target: T1, Glucocorticoid receptor (Mus musculus) (UniProt P06537); test: Stabilization of glucocorticoid receptor in mouse RAW264.7 cells assessed as blockade of CHX-induced protein degradation at 20 uM incubated for 24 hrs by Western blot analysis; assay type: cell-based
T1 sequence (whole entry): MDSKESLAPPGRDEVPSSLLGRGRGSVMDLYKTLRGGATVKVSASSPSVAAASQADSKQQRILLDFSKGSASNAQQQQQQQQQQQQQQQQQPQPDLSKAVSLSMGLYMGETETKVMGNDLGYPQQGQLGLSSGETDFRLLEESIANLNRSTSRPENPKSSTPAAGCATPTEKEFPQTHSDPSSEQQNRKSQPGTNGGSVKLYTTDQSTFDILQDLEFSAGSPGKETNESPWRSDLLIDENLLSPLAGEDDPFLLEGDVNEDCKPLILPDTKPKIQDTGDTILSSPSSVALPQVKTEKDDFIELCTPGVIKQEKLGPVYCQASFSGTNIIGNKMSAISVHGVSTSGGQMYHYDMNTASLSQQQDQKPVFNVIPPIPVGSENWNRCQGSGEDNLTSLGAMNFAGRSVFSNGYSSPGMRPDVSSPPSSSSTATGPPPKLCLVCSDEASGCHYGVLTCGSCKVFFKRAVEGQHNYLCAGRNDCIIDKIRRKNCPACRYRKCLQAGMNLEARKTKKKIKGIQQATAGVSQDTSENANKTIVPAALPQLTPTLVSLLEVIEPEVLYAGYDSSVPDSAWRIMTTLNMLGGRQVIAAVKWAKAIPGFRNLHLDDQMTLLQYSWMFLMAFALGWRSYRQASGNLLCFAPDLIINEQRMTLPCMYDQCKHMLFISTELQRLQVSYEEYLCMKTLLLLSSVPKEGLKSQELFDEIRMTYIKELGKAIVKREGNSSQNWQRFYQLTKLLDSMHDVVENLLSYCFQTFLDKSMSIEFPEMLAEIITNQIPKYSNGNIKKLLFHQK

RAW264.7 [9] = test: Downregulation of glucocorticoid receptor in mouse RAW264.7 cells at 20 uM incubated for 24 hrs by Western blot analysis; assay type: functional, cell-based
Mus musculus [10] = test: Anti-septic activity in LPS-induced sepsis BALB/c mouse assessed as reduction in serum AST level at 30 mg/kg administered via gavage for 3 days followed by LPS treatment for 6 hrs; assay type: functional, organism-based; settings: time 78.0 hrs
Mus musculus [11] = test: Upregulation of glucocorticoid receptor expression in liver of LPS-induced sepsis BALB/c mouse model at 7.5 to 30 mg/kg administered via gavage for 3 days followed by LPS treatment for 6 hrs by Western blot analysis; assay type: functional, organism-based; settings: dose 7.5-30 mg/kg, time 78.0 hrs
RAW264.7 [12] = test: Anti-inflammatory activity in mouse RAW264.7 cells assessed as inhibition of LPS-induced TNF-alpha production pretreated for 2 hrs followed by LPS stimulation for 24 hrs by ELISA; assay type: functional, cell-based; settings: dose 5-20 µM, time 26.0 hrs
Mus musculus [13] = test: Anti-septic activity in LPS-induced sepsis BALB/c mouse assessed as reduction in lung tissue damage at 7.5 to 30 mg/kg administered via gavage for 3 days followed by LPS treatment for 6 hrs by H and E staining based analysis; assay type: functional, organism-based; settings: dose 7.5-30 mg/kg, time 78.0 hrs
[14] = biological target: T1, Glucocorticoid receptor (Mus musculus); test: Binding affinity to glucocorticoid receptor in mouse RAW264.7 cells assessed as increase in thermal stability at 47 to 51 degreeC at 40 uM pretreated for 24 hrs followed by heat exposure for 3 mins and subsequently incubated at room temperature for 3 mins by CETSA; assay type: cell-based; settings: time 1446.0 min
[15] = biological target: T1, Glucocorticoid receptor (Mus musculus); test: Binding affinity to glucocorticoid receptor in mouse RAW264.7 cells assessed as thermal stability by measuring protein degradation at 47 degreeC at 10 to 40 uM pretreated for 24 hrs followed by heat exposure for 3 mins and subsequently incubated at room temperature for 3 mins by CETSA; assay type: cell-based; settings: dose 10-40 µM, time 1446.0 min
RAW264.7 [16] = test: Upregulation of glucocorticoid receptor expression in LPS-treated mouse RAW264.7 cells pretreated for 2 hrs followed by LPS stimulation for 24 hrs by Western blot analysis; assay type: functional, cell-based; settings: time 26.0 hrs
Mus musculus [17] = test: Anti-septic activity in LPS-induced sepsis BALB/c mouse assessed as body weight recovery at 7.5 to 30 mg/kg administered via gavage for 3 days followed by LPS treatment for 6 hrs; assay type: functional, organism-based; settings: dose 7.5-30 mg/kg, time 78.0 hrs
Mus musculus [18] = test: Anti-septic activity in LPS-induced sepsis BALB/c mouse assessed as reduction in pathological change in kidney at 7.5 to 30 mg/kg administered via gavage for 3 days followed by LPS treatment for 6 hrs by H and E staining based analysis; assay type: functional, organism-based; settings: dose 7.5-30 mg/kg, time 78.0 hrs
RAW264.7 [19] = test: Anti-inflammatory activity in mouse RAW264.7 cells assessed as inhibition of LPS-induced IL-6 production pretreated for 2 hrs followed by LPS stimulation for 24 hrs by ELISA; assay type: functional, cell-based; settings: dose 5-20 µM
[20] = Cytotoxicity against mouse RAW264.7 cells assessed as cell viability at 40 uM incubated for 24 hrs by MTT assay relative to control; assay type: toxicity, cell-based; settings: read-out: Activity
Mus musculus [21] = test: Anti-septic activity in LPS-induced sepsis BALB/c mouse assessed as reduction in serum TNF-alpha level at 7.5 to 30 mg/kg administered via gavage for 3 days followed by LPS treatment for 6 hrs by ELISA; assay type: functional, organism-based; settings: dose 7.5-30 mg/kg, time 78.0 hrs
RAW264.7 [22] = test: Inhibition of LPS-induced NO production in mouse RAW264.7 cells at 5 uM pretreated for 2 hrs followed by LPS stimulation for 24 hrs by Griess assay relative to control; assay type: functional; settings: time 26 hrs
Mus musculus [23] = test: Anti-septic activity in LPS-induced sepsis BALB/c mouse assessed as increase in survival rate at 7.5 to 30 mg/kg administered via gavage for 3 days followed by LPS treatment for 6 hrs; assay type: functional, organism-based; settings: dose 7.5-30 mg/kg, time 78.0 hrs
RAW264.7 [24] = test: Inhibition of LPS-induced NO production in mouse RAW264.7 cells at 10 uM pretreated for 2 hrs followed by LPS stimulation for 24 hrs by Griess assay relative to control; assay type: functional; settings: time 26 hrs

CC(C)(C)OC(=O)CCC(=O)Nc1nc2c(s1)C[C@]1(C)[C@H]3C[C@@H](O)[C@@H]4C([C@]5(C)CC[C@@H](C(C)(C)O)O5)CC[C@@]4(C)[C@]3(C)CC[C@H]1C2(C)C (some centres undefined)
IC50 (RAW264.7 [1]): 3.38 µM | Activity (Mus musculus [2]): Active | Activity (RAW264.7 [3]): Active | inhibition at 20 µM (RAW264.7 [4]): 86% | Activity (RAW264.7 [5]): inactive | Activity (RAW264.7 [6]): Active | Activity (Mus musculus [7]): Active | Activity [8]: Active | Activity (RAW264.7 [9]): inactive | Activity (Mus musculus [10]): Active | Activity (Mus musculus [11]): Active | inhibition (RAW264.7 [12]): Dose-Dependent Effect | Activity (Mus musculus [13]): Active | Activity [14]: Active | Activity [15]: Active | Activity (RAW264.7 [16]): Active | Activity (Mus musculus [17]): Active | Activity (Mus musculus [18]): Active | inhibition (RAW264.7 [19]): Dose-Dependent Effect | viability at 24 h, 40 µM [20]: > 90% | Activity (Mus musculus [21]): Active | inhibition at 5 µM (RAW264.7 [22]): 30.3% | Activity (Mus musculus [23]): Active | inhibition at 10 µM (RAW264.7 [24]): 52.6%
